ChEMBL document CHEMBL3991601, “The target landscape of clinical kinase drugs” (Science, 2017)
Calls of active or inactive are those of the source. For most assays here, no stated cut-off is given here; in the data, actives have a measured Kd and inactives only a lower limit.

The compounds below were run against T1, Receptor-type tyrosine-protein kinase FLT3 (Homo sapiens, UniProt P36888).
T1 sequence (P36888 whole entry): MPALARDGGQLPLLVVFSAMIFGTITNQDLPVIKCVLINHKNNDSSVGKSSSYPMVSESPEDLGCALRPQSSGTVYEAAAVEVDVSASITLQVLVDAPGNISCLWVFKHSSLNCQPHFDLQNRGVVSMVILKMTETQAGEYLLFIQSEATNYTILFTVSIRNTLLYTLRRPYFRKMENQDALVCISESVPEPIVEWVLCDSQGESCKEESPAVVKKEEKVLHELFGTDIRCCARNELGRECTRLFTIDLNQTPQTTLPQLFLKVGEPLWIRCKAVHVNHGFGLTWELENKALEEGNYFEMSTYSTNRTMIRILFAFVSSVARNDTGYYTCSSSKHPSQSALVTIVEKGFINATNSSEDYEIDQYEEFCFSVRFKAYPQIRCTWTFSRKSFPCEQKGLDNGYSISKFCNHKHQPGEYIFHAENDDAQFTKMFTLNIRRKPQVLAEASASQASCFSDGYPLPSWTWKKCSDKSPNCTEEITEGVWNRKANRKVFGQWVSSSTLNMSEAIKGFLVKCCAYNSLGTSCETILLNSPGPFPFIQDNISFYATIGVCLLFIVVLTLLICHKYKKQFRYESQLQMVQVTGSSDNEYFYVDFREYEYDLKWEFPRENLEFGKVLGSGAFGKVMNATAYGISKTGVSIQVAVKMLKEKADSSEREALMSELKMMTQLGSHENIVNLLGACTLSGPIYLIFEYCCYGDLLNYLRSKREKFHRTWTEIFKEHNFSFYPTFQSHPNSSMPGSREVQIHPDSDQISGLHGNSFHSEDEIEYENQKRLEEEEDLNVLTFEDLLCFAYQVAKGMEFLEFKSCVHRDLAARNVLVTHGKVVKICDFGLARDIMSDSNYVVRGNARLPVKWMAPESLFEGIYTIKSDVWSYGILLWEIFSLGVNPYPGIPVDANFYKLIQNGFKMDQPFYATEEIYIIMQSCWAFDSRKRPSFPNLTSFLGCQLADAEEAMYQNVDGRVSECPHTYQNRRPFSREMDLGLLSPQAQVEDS
For `COc1cc(OC)c(/C=C/S(=O)(=O)Cc2ccc(OC)c(NCC(=O)O)c2)c(OC)c1` [RIGOSERTIB], the Kd was > 30 µM (inactive). For `CNC(=O)CN1CCC(Oc2cc3c(Nc4cccc(Cl)c4F)ncnc3cc2OC)CC1` [SAPITINIB], the Kd was > 30 µM (inactive). `CN1CCC(CNc2ccc3ncc(-c4cccc(OC(F)(F)F)c4)n3n2)CC1` [SGI-1776] was tested, and the Kd was 0.143 µM (active). With `C[C@@H]1CN(Cc2ccc(F)cc2)[C@@H](C)CN1C(=O)c1cc2c(C(=O)C(=O)N(C)C)cn(C)c2cc1Cl` [TALMAPIMOD] the Kd was > 30 µM (inactive). With `CN1CCC(COc2cnc(-c3cccc(Cn4nc(-c5cccc(C#N)c5)ccc4=O)c3)nc2)CC1` [TEPOTINIB] the Kd was > 30 µM (inactive).

The compounds below were run against Mitogen-activated protein kinase kinase kinase kinase 1 (Homo sapiens, UniProt Q92918).
Sequence of Mitogen-activated protein kinase kinase kinase kinase 1 (Q92918 whole entry): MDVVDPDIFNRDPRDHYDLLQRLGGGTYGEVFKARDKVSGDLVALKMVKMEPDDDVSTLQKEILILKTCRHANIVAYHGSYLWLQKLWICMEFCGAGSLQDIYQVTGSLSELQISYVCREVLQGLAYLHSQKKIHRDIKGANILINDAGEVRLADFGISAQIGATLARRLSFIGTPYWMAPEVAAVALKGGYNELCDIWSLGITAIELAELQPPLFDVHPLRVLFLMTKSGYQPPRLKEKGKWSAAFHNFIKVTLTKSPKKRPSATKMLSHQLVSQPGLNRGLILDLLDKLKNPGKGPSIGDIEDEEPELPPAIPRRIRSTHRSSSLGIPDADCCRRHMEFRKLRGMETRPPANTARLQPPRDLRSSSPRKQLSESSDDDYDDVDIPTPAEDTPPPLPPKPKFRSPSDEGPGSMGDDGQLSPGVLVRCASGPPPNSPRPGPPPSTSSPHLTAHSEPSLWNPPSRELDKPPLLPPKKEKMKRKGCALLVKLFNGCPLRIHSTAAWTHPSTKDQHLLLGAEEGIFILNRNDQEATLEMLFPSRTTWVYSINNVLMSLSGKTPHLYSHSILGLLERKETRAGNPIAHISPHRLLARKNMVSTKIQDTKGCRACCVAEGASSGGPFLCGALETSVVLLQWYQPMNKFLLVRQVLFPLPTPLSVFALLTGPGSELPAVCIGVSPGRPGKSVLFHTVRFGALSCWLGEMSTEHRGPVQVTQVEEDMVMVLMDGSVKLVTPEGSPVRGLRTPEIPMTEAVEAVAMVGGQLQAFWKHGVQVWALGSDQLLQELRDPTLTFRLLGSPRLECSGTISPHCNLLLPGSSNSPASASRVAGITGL
For `COc1cc(OC)c(/C=C/S(=O)(=O)Cc2ccc(OC)c(NCC(=O)O)c2)c(OC)c1` [RIGOSERTIB], the Kd was > 30 µM (inactive). For `CNC(=O)CN1CCC(Oc2cc3c(Nc4cccc(Cl)c4F)ncnc3cc2OC)CC1` [SAPITINIB], the Kd was > 30 µM (inactive). With `CN1CCC(CNc2ccc3ncc(-c4cccc(OC(F)(F)F)c4)n3n2)CC1` [SGI-1776] the Kd was > 30 µM (inactive). `C[C@@H]1CN(Cc2ccc(F)cc2)[C@@H](C)CN1C(=O)c1cc2c(C(=O)C(=O)N(C)C)cn(C)c2cc1Cl` [TALMAPIMOD] was tested, and the Kd was > 30 µM (inactive). `CN1CCC(COc2cnc(-c3cccc(Cn4nc(-c5cccc(C#N)c5)ccc4=O)c3)nc2)CC1` [TEPOTINIB] was tested, and the Kd was > 30 µM (inactive).

These compounds were tested against T2, Mitogen-activated protein kinase kinase kinase kinase 3 (Homo sapiens, UniProt Q8IVH8).
T2 sequence (Q8IVH8 whole entry): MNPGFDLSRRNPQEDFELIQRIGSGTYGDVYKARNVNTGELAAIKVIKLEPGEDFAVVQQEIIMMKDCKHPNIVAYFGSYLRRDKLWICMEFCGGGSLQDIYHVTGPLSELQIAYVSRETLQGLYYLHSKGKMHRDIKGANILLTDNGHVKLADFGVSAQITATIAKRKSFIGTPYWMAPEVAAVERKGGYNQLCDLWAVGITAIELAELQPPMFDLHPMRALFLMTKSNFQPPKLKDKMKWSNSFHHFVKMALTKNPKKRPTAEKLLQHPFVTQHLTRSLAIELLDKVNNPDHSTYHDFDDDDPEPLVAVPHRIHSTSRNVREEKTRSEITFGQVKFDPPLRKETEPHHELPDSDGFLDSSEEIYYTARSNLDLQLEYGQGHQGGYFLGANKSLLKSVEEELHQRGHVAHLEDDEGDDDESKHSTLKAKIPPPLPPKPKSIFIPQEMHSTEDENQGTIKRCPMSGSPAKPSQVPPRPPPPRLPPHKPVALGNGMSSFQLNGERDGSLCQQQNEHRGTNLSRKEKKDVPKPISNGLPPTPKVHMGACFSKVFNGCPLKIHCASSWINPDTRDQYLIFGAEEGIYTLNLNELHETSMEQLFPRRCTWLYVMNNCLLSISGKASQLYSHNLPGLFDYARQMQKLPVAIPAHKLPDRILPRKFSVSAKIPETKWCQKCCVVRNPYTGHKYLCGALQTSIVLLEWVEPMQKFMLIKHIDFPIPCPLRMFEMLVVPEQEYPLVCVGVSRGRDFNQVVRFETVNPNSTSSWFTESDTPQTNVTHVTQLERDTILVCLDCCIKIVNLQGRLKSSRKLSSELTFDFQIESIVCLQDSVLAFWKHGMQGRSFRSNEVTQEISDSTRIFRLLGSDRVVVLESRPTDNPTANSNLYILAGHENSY
With `COc1cc(OC)c(/C=C/S(=O)(=O)Cc2ccc(OC)c(NCC(=O)O)c2)c(OC)c1` [RIGOSERTIB] the Kd was > 30 µM (inactive). With `CNC(=O)CN1CCC(Oc2cc3c(Nc4cccc(Cl)c4F)ncnc3cc2OC)CC1` [SAPITINIB] the Kd was > 30 µM (inactive). In the case of `CN1CCC(CNc2ccc3ncc(-c4cccc(OC(F)(F)F)c4)n3n2)CC1` [SGI-1776], the Kd is reported as > 30 µM (inactive). `C[C@@H]1CN(Cc2ccc(F)cc2)[C@@H](C)CN1C(=O)c1cc2c(C(=O)C(=O)N(C)C)cn(C)c2cc1Cl` [TALMAPIMOD] was tested, and the Kd was > 30 µM (inactive). With `CN1CCC(COc2cnc(-c3cccc(Cn4nc(-c5cccc(C#N)c5)ccc4=O)c3)nc2)CC1` [TEPOTINIB] the Kd was > 30 µM (inactive).

These compounds were tested against Maternal embryonic leucine zipper kinase (Homo sapiens, UniProt Q14680).
Sequence of Maternal embryonic leucine zipper kinase (Q14680 whole entry): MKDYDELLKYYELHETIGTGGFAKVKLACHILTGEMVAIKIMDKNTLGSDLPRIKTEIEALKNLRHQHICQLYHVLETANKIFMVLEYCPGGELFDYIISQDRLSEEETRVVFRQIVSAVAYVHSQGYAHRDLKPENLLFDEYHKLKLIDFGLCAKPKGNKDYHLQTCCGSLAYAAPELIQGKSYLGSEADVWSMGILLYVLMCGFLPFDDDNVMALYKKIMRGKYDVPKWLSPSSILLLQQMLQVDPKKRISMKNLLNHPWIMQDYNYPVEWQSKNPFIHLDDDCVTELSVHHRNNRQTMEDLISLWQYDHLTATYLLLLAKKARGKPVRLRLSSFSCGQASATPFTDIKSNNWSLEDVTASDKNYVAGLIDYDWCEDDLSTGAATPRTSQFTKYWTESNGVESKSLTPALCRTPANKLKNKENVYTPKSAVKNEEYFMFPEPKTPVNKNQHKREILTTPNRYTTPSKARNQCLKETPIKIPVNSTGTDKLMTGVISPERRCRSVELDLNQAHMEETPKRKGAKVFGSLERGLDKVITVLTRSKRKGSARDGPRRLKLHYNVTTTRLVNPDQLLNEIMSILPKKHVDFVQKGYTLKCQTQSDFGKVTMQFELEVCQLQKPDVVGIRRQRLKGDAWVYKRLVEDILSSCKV
With `COc1cc(OC)c(/C=C/S(=O)(=O)Cc2ccc(OC)c(NCC(=O)O)c2)c(OC)c1` [RIGOSERTIB] the Kd was > 30 µM (inactive). `CNC(=O)CN1CCC(Oc2cc3c(Nc4cccc(Cl)c4F)ncnc3cc2OC)CC1` [SAPITINIB] was tested, and the Kd was > 30 µM (inactive). `CN1CCC(CNc2ccc3ncc(-c4cccc(OC(F)(F)F)c4)n3n2)CC1` [SGI-1776] was tested, and the Kd was > 30 µM (inactive). In the case of `C[C@@H]1CN(Cc2ccc(F)cc2)[C@@H](C)CN1C(=O)c1cc2c(C(=O)C(=O)N(C)C)cn(C)c2cc1Cl` [TALMAPIMOD], the Kd is reported as > 30 µM (inactive). For `CN1CCC(COc2cnc(-c3cccc(Cn4nc(-c5cccc(C#N)c5)ccc4=O)c3)nc2)CC1` [TEPOTINIB], the Kd was > 30 µM (inactive).

The compounds below were run against T3, Serine/threonine-protein kinase Nek9 (Homo sapiens, UniProt Q8TD19).
T3 sequence (Q8TD19 whole entry): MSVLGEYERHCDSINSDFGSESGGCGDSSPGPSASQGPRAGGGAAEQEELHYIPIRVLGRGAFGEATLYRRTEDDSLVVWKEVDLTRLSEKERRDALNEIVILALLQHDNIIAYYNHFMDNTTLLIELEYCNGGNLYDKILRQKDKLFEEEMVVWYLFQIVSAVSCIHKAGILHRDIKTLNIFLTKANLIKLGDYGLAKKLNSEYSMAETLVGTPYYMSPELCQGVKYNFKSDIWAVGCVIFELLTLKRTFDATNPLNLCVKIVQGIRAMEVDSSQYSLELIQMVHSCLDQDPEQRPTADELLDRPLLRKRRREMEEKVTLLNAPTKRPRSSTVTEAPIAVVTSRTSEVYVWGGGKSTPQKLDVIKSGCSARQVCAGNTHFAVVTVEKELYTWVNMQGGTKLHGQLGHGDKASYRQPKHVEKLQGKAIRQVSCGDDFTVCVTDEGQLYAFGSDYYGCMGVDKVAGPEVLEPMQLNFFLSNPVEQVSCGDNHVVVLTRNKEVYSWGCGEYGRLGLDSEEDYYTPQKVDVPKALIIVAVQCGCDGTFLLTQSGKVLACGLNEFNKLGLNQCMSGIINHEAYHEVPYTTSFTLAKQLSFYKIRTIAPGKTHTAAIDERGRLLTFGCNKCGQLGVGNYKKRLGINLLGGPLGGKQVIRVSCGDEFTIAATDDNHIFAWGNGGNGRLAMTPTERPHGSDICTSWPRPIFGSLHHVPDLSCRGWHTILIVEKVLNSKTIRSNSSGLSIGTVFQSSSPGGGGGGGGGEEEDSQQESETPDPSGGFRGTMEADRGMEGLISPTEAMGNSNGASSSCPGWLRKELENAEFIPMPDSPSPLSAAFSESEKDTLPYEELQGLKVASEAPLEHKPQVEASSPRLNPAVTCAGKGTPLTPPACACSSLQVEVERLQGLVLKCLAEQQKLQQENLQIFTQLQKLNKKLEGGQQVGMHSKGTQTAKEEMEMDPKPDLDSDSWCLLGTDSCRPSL
For `COc1cc(OC)c(/C=C/S(=O)(=O)Cc2ccc(OC)c(NCC(=O)O)c2)c(OC)c1` [RIGOSERTIB], the Kd was > 30 µM (inactive). In the case of `CNC(=O)CN1CCC(Oc2cc3c(Nc4cccc(Cl)c4F)ncnc3cc2OC)CC1` [SAPITINIB], the Kd is reported as > 30 µM (inactive). `CN1CCC(CNc2ccc3ncc(-c4cccc(OC(F)(F)F)c4)n3n2)CC1` [SGI-1776] was tested, and the Kd was > 30 µM (inactive). In the case of `C[C@@H]1CN(Cc2ccc(F)cc2)[C@@H](C)CN1C(=O)c1cc2c(C(=O)C(=O)N(C)C)cn(C)c2cc1Cl` [TALMAPIMOD], the Kd is reported as > 30 µM (inactive). In the case of `CN1CCC(COc2cnc(-c3cccc(Cn4nc(-c5cccc(C#N)c5)ccc4=O)c3)nc2)CC1` [TEPOTINIB], the Kd is reported as > 30 µM (inactive).

These compounds were tested against Structural maintenance of chromosomes protein 2 (Homo sapiens, UniProt O95347).
Sequence of Structural maintenance of chromosomes protein 2 (O95347 whole entry): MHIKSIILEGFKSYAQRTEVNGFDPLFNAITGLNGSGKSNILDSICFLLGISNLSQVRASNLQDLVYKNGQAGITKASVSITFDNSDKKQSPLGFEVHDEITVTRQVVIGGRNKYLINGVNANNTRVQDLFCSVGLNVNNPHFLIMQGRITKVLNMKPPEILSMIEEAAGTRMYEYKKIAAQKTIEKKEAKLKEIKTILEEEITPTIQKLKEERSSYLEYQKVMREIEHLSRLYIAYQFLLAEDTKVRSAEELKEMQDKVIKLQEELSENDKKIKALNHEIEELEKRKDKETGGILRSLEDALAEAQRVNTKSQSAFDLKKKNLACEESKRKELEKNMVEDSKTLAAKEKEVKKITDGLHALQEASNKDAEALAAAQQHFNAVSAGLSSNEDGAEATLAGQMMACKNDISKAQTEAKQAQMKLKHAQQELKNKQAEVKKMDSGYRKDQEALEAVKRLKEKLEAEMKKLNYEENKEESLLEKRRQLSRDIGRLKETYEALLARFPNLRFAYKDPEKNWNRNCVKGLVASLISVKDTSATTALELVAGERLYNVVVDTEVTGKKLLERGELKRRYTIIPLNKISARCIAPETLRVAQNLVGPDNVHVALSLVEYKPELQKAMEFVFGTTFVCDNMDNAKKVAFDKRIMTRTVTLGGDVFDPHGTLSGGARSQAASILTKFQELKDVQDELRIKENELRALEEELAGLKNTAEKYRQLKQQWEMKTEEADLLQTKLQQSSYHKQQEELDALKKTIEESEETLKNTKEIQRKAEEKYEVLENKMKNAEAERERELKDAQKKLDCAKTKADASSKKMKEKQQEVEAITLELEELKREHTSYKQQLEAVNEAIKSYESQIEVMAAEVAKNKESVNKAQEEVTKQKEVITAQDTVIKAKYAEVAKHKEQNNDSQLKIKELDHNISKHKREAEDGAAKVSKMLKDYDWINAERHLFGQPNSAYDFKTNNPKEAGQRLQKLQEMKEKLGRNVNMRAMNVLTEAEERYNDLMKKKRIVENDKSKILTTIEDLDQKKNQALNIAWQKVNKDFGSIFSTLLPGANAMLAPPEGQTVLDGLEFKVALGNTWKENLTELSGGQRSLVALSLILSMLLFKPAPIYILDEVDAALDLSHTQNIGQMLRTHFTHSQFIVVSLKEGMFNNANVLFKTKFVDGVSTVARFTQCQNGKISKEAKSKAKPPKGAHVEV
With `COc1cc(OC)c(/C=C/S(=O)(=O)Cc2ccc(OC)c(NCC(=O)O)c2)c(OC)c1` [RIGOSERTIB] the Kd was > 30 µM (inactive). For `CNC(=O)CN1CCC(Oc2cc3c(Nc4cccc(Cl)c4F)ncnc3cc2OC)CC1` [SAPITINIB], the Kd was > 30 µM (inactive). For `CN1CCC(CNc2ccc3ncc(-c4cccc(OC(F)(F)F)c4)n3n2)CC1` [SGI-1776], the Kd was > 30 µM (inactive). With `C[C@@H]1CN(Cc2ccc(F)cc2)[C@@H](C)CN1C(=O)c1cc2c(C(=O)C(=O)N(C)C)cn(C)c2cc1Cl` [TALMAPIMOD] the Kd was > 30 µM (inactive). In the case of `CN1CCC(COc2cnc(-c3cccc(Cn4nc(-c5cccc(C#N)c5)ccc4=O)c3)nc2)CC1` [TEPOTINIB], the Kd is reported as > 30 µM (inactive).
